Assay results reported in patent publication US12667559B2, “Dihydronaphthyridinone compound, and preparation method therefor and medical use thereof” (GENFLEET THERAPEUTICS (SHANGHAI) INC., priority 2020, dated 2026).

What was measured:
U937 cells = experiment: Inhibitory activity against TNF-α induced programmed cell necrosis (U937 cells, CellTiter-Glo); format: cell-based, human; details: Homo sapiens, U-937, 48 h, U937 cells, human TNF-α and Q-VD-Oph induced necrosis, 48 hours, survival rate; read-out: U937 IC50
RIPK1 = molecular target: T1, RIPK1 (Homo sapiens, UniProt Q13546); experiment: Inhibitory activity against RIPK1 enzyme (33P-ATP, MBP substrate); format: biochemical; details: 36 nM RIPK1, 0.33 mg/ml MBP, 155 μM 33P-ATP, 2 hours, room temperature
T1 construct: purchased Eurofins 16-022
T1 sequence (Q13546 1-671): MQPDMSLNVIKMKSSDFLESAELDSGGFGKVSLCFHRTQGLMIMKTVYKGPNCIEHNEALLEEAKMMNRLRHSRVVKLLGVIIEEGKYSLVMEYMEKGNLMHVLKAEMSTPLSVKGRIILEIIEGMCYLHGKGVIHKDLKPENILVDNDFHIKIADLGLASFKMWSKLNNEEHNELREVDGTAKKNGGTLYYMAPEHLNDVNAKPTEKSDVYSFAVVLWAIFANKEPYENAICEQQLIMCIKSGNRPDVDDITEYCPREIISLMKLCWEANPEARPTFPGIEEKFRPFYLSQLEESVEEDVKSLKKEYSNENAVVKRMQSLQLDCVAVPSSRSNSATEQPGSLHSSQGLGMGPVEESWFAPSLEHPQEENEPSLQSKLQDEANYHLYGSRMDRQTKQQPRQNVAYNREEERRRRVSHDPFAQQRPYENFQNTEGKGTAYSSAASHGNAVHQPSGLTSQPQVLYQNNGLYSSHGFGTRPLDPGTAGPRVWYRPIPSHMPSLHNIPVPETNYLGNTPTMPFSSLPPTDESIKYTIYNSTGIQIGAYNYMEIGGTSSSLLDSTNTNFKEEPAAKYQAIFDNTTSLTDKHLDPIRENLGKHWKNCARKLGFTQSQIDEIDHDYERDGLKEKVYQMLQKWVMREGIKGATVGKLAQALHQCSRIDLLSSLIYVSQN
Text: (§1) The U937 cell line used in the following test examples is from ATCC, with the number of CRL-1593.2, batch number of 63479999, and the culture medium of RPMI-1640+10% FBS. The L929 cell line used in the following test examples is from ATCC, with the number of CCL-1, batch number of 70001022, and the culture medium of MEM+10% FBS+1% PS. The reagents used, and suppliers and article numbers thereof are as follows: RPMI-1640, Gibco, 11875-093; FBS, Gibco, 10099-141; Trypsin-EDTA, Gibco, 25200-072; PS, Gibco, 15140-122; CellTiter Glo, Progema, G7573; DMSO, VWR AMRESCO, 0231-500ML; TNF-α protein (human, recombinant), Peprotech, 300-01A; Q-VD-Oph, MCE, HY-12305; V-shaped bottom plate, Corning, 3894; 384 well low flange white flat bottom polystyrene TC-treated microplates, Corning, 3570; RIPK1, Eurofins, 16-022; MOPS, BDH, 441644J; EDTA, Sigma, E5134; myelin basic protein, Sigma, M1891-25.00 MG; magnesium acetate, Merck, DU008026; ATP (non-radioactive label), Sigma, A-7699; ATP (radioactive label), Hartmann Analytic, DU008054; phosphoric acid, Metlab, DU003000; Z-VAD: Shanghai Twochem Co., Ltd., YA02401.
The compounds to be tested was dissolved in DMSO to prepare a 10 mM stock solution, which was diluted 3.16 times with DMSO into a series of concentration gradients, and then diluted 50 times with MOPS buffer solution (pH 7.0) to prepare a working solution, which were mixed well with 36 nM RIPK1 (final concentration), and 0.33 mg/ml substrate MBP. 10 mM magnesium ions and 155 μM phosphorous 33 isotope-labeled ATP were added to the reaction. The final concentration of DMSO was 2%. After 2 hours of reaction at room temperature, phosphoric acid was added to stop the reaction. The final reaction system was processed and then detected with a liquid scintillation counter.

L929 cells = experiment: Inhibitory activity against TNF-α induced programmed necrosis of L929 cells (CellTiter-Glo); format: cell-based; details: Mus musculus, 30 ng/ml murine TNF-α and 15 μM Z-VAD, 6 hours, survival rate
Text: as §1
The compounds to be tested was dissolved in DMSO and prepared as a 10 mM stock solution, which was diluted 3.16 times with DMSO to form a series of concentration gradients, and then diluted 100 times with culture medium to make a working solution. 10,000 L929 cells/well were seeded on a 384-well white plate, and the corresponding concentration of compound was added to each well to mix with the cells uniformly. At the same time, 30 ng/ml murine TNF-α and 15 μM Z-VAD were added to induce programmed necrosis of the cells. The final concentration of DMSO was 0.2%, and the cells were placed in a 37° C., 5% CO2 incubator for further incubation for 6 hours. CellTiter-Glo reagent was used for detection. After the reaction was fully lysed, the chemiluminescence readings was detected by a microplate reader. The test results were calculated using the formula for survival rate: SR (%)=(RLU compound−RLU blank)/(RLU high control-RLU blank)×100%. The survival rate and the final concentration of the corresponding compound were plotted as a curve, and fitted using a four-parameter model to calculate the inhibitory IC50 of compounds on TNF-α-induced programmed cell necrosis.

With `Nc1nc2cc(-c3cnc4c(c3)C(=O)N(Cc3cc(F)cc(F)c3OC3CC3)CC4)ccn2n1` [Z69] the IC50 (U937 cells) was 1.4 nM, the IC50 (RIPK1) was 33 nM and the IC50 (L929 cells) was 3.7 nM.

`Nc1nc2cc(-c3cnc4c(c3)C(=O)N(Cc3cc(F)ccc3OC3CCCC3)CC4)ccn2n1` [Z45, 3-(2-amino-[1,2,4]triazolo[1,5-a]pyridyl-7-yl)-6-(2-(cyclopentyloxy)-5-fluorobenzyl)-7,8-dihydro-1,6-naphthyridin-5(6H)-one] showed an IC50 (U937 cells) of 0.2 nM and an IC50 (L929 cells) of 1.3 nM.

`C[C@H](c1ccc(F)cc1)n1cc(N2CCc3ncc(-c4ccn5nc(N)nc5c4)cc3C2=O)cn1` (single isomer, unassigned) [Z74] showed an IC50 (U937 cells) of 3.8 nM, an IC50 (RIPK1) of 193 nM and an IC50 (L929 cells) of 2.3 nM.

In the case of `Cc1c(-c2ccc(F)cc2CN2CCc3ncc(-c4ccn5nc(N)nc5c4)cc3C2=O)cnn1C` [Z82], the IC50 (U937 cells) is reported as 23.4 nM and the IC50 (RIPK1) is reported as 50 nM.

`O=C(Nc1cn2nc(-c3cnc4c(c3)C(=O)N(Cc3ccccc3OC(F)(F)F)CC4)ccc2n1)C1CC1` [Z10, N-(6-(5-oxo-6-(2-(trifluoromethoxy)benzyl)-5,6,7,8-tetrahydro-1,6-naphthyridin-3-yl)imidazo[1,2-b]pyridazin-2-yl)cyclopropanecarboxamide] gave an IC50 (U937 cells) of 5.9 nM, an IC50 (RIPK1) of 56 nM and an IC50 (L929 cells) of 2.4 nM.

For `CC(=O)Nc1cn2nc(-c3cnc4c(c3)C(=O)N(Cc3cc(F)cc(F)c3OC3CCOCC3)CC4)ccc2n1` [Z2, N-(6-(6-(3,5-difluoro-2-((tetrahydro-2H-pyran-4-yl)oxy)benzyl)-5-oxo-5,6,7,8-tetrahydro-1,6-naphthyridin-3-yl)imidazo[1,2-b]pyridazin-2-yl)acetamide], the IC50 (U937 cells) was 0.103 nM, the IC50 (RIPK1) was 37 nM and the IC50 (L929 cells) was under 2.8 nM.

`CC(=O)Nc1cn2nc(-c3cnc4c(c3)C(=O)N(Cc3ccccc3OC(F)(F)F)CC4)ccc2n1` [Z5, N-(6-(5-oxo-6-(2-(trifluoromethoxy)benzyl)-5,6,7,8-tetrahydro-1,6-naphthyridin-3-yl)imidazo[1,2-b]pyridazin-2-yl)acetamide] showed an IC50 (U937 cells) of 46.7 nM and an IC50 (L929 cells) of 8 nM.

`Cn1cc(-c2ccc(F)cc2CN2CCc3ncc(-c4ccn5nc(N)nc5c4)cc3C2=O)cn1` [Z51, 3-(2-amino-[1,2,4]triazolo[1,5-a]pyridyl-7-yl)-6-(5-fluoro-2-(1-methyl-1H-pyrazol-4-yl)benzyl)-7,8-dihydro-1,6-naphthyridin-5(6H)-one] gave an IC50 (U937 cells) of 24 nM and an IC50 (RIPK1) of 72 nM.

With `C[C@H](c1cc(F)ccc1-c1cnn(C)c1)N1CCc2ncc(-c3ccn4nc(N)nc4c3)cc2C1=O` (single isomer, unassigned) [Z85] the IC50 (U937 cells) was 4.3 nM, the IC50 (RIPK1) was 34 nM and the IC50 (L929 cells) was 13.4 nM.

`Nc1nc2cc(-c3cnc4c(c3)C(=O)N(Cc3cccnc3OC3CCCC3)CC4)ccn2n1` [Z47, 3-(2-amino-[1,2,4]triazole[1,5-a]pyridyl-7-yl)-6-((2-(cyclopentyloxy)pyridyl-3-yl)methyl)-7,8-dihydro-1,6-naphthyridin-5(6H)-one] was tested, and the IC50 (U937 cells) was 3 nM and the IC50 (L929 cells) was 5.1 nM.
